Results on two molecules are retold here after publication PMC10498496, “Design and Synthesis of Poly(2,2′-Bipyridyl) Ligands for Induction of Cell Death in Cancer Cells: Control of Anticancer Activity by Complexation/Decomplexation with Biorelevant Metal Cations” (Inorganic Chemistry, 2023).

What all share (type): cell-based, human
One experiment deals with U937 cells. Description: MTT assay, cytotoxicity against U937 cells. The settings on record: MTT, 37 °C, treated for 24 h, read-out: EC50 against U937. Here is the method: (§1) Second, we conducted the quantitative evaluation of the cytotoxicity of 1, 2, and 3 against various cancer cell lines by an MTT (3-(4,5-dimethylthiazol-2-yl)-2,5-diphenyltetrazolium bromide) assay. Jurkat, MOLT-4 (these two cell lines are human T-lymphocyte leukemia cells), and U937 (human lymphoma) cells (1.5 × 10^4 cells/well) were incubated in RPMI 1640 medium containing 10% FBS (fetal bovine serum) containing 1, 2, and 3 (0–25 μM) at 37 °C for 24 h, and then treated with the MTT reagent. A549 (human alveolar adenocarcinoma) and IMR-90 (normal human fetal lung fibroblast as model of normal cells) cells (1.5 × 10^4 cells/well) were incubated in DMEM (low glucose) with 10% FBS containing 1, 2, and 3 (0–25 μM), HeLa S3 (human epithelial carcinoma cells) cells (1.5 × 10^4 cells/well) were incubated in MEM with 10% FBS containing these ligands (0–25 μM) for 24 h at 37 °C and then treated with the MTT reagent.
(§2) • (a) Cytotoxic study. Jurkat cells, MOLT-4 cells, and U937 cells (1.5 × 10^5 cells/mL per one well) were incubated in 10% FBS RPMI 1640 medium containing 1 (0–25 μM), 2 (0–25 μM) , 3, cisplatin (0–100 μM), and actinomycin D (0–10 μM) under 5% CO2 at 37 °C for 24 h on 96 well plates (Watson), 0.5% MTT (3-(4,5-dimethyl-2-thiazolyl)-2,5-diphenyl-2H-tetrazolium bromide) reagent in PBS (10 μL) was then added to the cells. After incubation at 37 °C for 4 h, a formazan lysis solution (10% SDS in 0.01 N HCl) (100 μL) was added and the resulting solution was incubated overnight under the same conditions, followed by the measurement of absorbance at 570 nm with a microplate reader (BIO-RAD).
For orientation: Formazan colour is commonly taken as a measure of viable cells.

Another experiment has as its system IMR-90 cells. The experiment in a line: MTT assay, cytotoxicity against IMR-90 cells (model of normal cells). To be noted: MTT, 37 °C, treated for 24 h, read-out: EC50 against IMR-90. The method, then:
as §1
IMR-90 cells in DMEM medium with 10% FBS (1.5 × 10^5 cells/mL) were seeded in to 96 well plates and incubated for 24 h at 37 °C, MTT assays with poly(bpy) ligands and their metal complexes (0–100 μM), cisplatin (0–100 μM), and actinomycin D (0–10 μM) were performed following the same procedure described above. These experiments were carried out at least three times. • (b) MTT assay in the presence of a caspase inhibitor. Jurkat cells were pre-treated with Z-VAD-fmk (15 μM) for 3 h, a general caspases inhibitor, followed by the treatment with 1 (1 μM), BABTA-AM (12.5 μM) and cisplatin (50 μM), respectively, for 24 h, and then MTT assay was carried out as described above. • (c) For evaluation of the effect of metal ions on the cytotoxicity of 1, 2, BAPTA, and BAPTA-AM, these ligands were incubated with metal ions such as Cu(NO3)2, Zn(NO3)2, FeSO4, Co(NO3)2, and NiSO4 for 1 h, respectively, and added to Jurkat cells. The whole mixtures were incubated for 12, 24, and 48 h at [ligand] = 0.78–25 μM and at [M^2+] = 1.71–37.5 μM ([ligand]/[M^2+] = 1:1.5). The MTT assays were conducted as described above.

A further experiment deals with Jurkat cells. Description: MTT assay in the presence of the caspase inhibitor Z-VAD-fmk. To be noted: Z-VAD-fmk 15 μM 3 h. From the text: We, therefore, selected Jurkat cells to study the cell death mechanism in detail, in this work. Programmed cell death (PCD) is generally classified into several types such as apoptosis, necroptosis, paraptosis, autophagic cell death, and so on.[30]−[33] We hypothesized that 1 and 2 function as inducers of apoptosis, which is a type of PCD in cancer cells, based on the morphological change of Jurkat cells observed in Figure 1 and mechanism of chelation therapy proposed in the previous studies.[11]−[19] It is known that the caspases family are cysteine proteases that play important roles in apoptosis and necroptosis.[38] Therefore, the effect of Z-VAD-fmk, which is known as one of general caspase inhibitors, on the cell death induced by 1 and cisplatin was examined.
Figure 3 Effect of Z-VAD-fmk on the cell death in Jurkat cells induced by 1. Jurkat cells were incubated in RPMI in the presence of Z-VAD-fmk (15 μM) for 3 h and then treated with (a) 1 (1 μM) and (b) cisplatin (50 μM) for 24 h. Asterisks indicate significant difference with *(P ≤ 0.05).
To investigate the mechanism responsible for the BAPTA-AM-induced cell death in Jurkat cells, Jurkat cells were incubated with Z-VAD-fmk (15 μM) for 3 h, and then cells were treated with BAPTA-AM (12.5 μM) for 24 h followed by an MTT assay.
IMR-90 cells in DMEM medium with 10% FBS (1.5 × 10^5 cells/mL) were seeded in to 96 well plates and incubated for 24 h at 37 °C, MTT assays with poly(bpy) ligands and their metal complexes (0–100 μM), cisplatin (0–100 μM), and actinomycin D (0–10 μM) were performed following the same procedure described above. These experiments were carried out at least three times. • (b) MTT assay in the presence of a caspase inhibitor. […]

The subject of another experiment is MOLT-4 cells. Description: MTT assay, cytotoxicity against MOLT-4 cells. To be noted: MTT, 37 °C, read-out: EC50 against MOLT-4. The method, then:
as §1, §2

Like-named read-outs stand apart in the source and are kept apart here.

A word on the EC50: it is the concentration giving half of the maximal effect. Consider `N.N.[Cl][Pt][Cl]` [cisplatin, reference compound], for which the concentration giving a half-maximal response (EC50) was 24 ± 0.9 µM in the experiment with U937 cells, over 100 µM with IMR-90 cells and 14 ± 0.3 µM with MOLT-4 cells (treated for 24 h). Besides, in the experiment on Jurkat cells (then compound 50 μM for 24 h), the “cell viability of Jurkat cells after preincubation with Z-VAD-fmk” value was “considerably restored”.
Consider `c1ccc(-c2ccc(OCc3cc(COc4ccc(-c5ccccn5)nc4)cc(COc4ccc(-c5ccccn5)nc4)c3)cn2)nc1` [compound 1, 1,3,5-Tris(([2,2′-Bipyridin]-5-yloxy)methyl)benzene], for which the EC50 in the experiment on U937 cells (Homo sapiens, U-937) was 0.32 ± 0.22 µM; in the experiment on IMR-90 cells (Homo sapiens, IMR-90), over 100 µM; in the experiment with MOLT-4 cells (Homo sapiens, MOLT-4, treated for 24 h), 0.21 ± 0.36 µM; with MOLT-4 cells (Homo sapiens, MOLT-4, treated for 48 h), under 0.1 µM. The “cell viability of Jurkat cells after preincubation with Z-VAD-fmk” value in the experiment with Jurkat cells (then compound 1 μM for 24 h) is on record as “considerably restored”.
